This passage reports IC50 and bioavailability results from patent US8093383B2, “P70 S6 kinase inhibitors” (Eli Lilly and Company, priority 2007, dated 2012).

Counter-ions that a name gives are not always drawn.

The target in one series is T1, P70 S6 kinase (T412E) (Homo sapiens, UniProt P23443, T412E).
T1 construct: purchased Upstate USA, Inc. (Charlottesville, Va.)
Briefly: Inhibition of p70S6 Kinase. The class given is biochemical. The note with it: 25 μM ATP, 5 nM enzyme, relative IC50. Here is the method: P70 S6 kinase (T412E) from Upstate USA, Inc. (Charlottesville, Va.) is preincubated with 10 concentrations of compound in a 15 μL volume for 30 min at room temperature in 96-well plates. PKA, PKC, MAPKAP-K1 Substrate from AnaSpec (San Jose, Calif.) and gamma ^33P-ATP from PerkinElmer (Waltham, Mass.) is added to initiate the reaction which is allowed to proceed for 60 minutes at room temperature in a final 25 μL volume under the following conditions: 10 mM HEPES pH 7.5, 10 mM MgCl2, 1.0 mM DTT, 0.082 mM EGTA, 0.005% TRITON X-100™, 25 μM, 25 μM ATP, 40 μCi/mL, 4 μM substrate, and 5 nM enzyme. Reactions are terminated with 75 μL 10% H3PO4 and 85 μL of quenched reaction mix is transferred to a phosphocellulose filter plate (Millipore #MAPHN0B50) and washed with 0.5% H3PO4 using a vacuum manifold. 100 μL of Microscint 20 (Packard #60113621) is added to each well and plates with liner are counted using a Wallac Beta Counter. Relative IC50 values are calculated by non-linear four parameter fitting.

A further series deals with T2, p70 S6K (Homo sapiens, UniProt P23443).
T2 construct: endogenous in cells; host or cells: HCT 116 human colon carcinoma xenograft tumours in athymic nude mice
Briefly: Determination of p70 S6K In Vivo Target Inhibition (HCT 116). The note with it: HCT 116 xenograft, PO; potency based on plasma exposure; phosphorylation of S6RP serine 240/244. Also on record: species or system athymic nude mice. Here is the method: HCT 116 human colon carcinoma cells* (5×10^6) are subcutaneously implanted into the flank of athymic nude mice in 0.2 mL of matrigel. Two weeks post-implantation, mice are dosed PO according to a time course, single dose/single time point, or dose response protocol for the determination of TMED50 (threshold minimum effective dose). Tumors are flash frozen at harvest and blood is collected for the determination of parent compound plasma exposure and the calculation of TMEC50 (threshold minimum effective concentration) in the case of dose response studies. Tumors or tissues are homogenized in XY Lysis buffer (10 μg/mL Leupeptin, 10 μg/mL Trypsin-Chymotrypsin Inhibitor, 10 μg/mL Tosyl phenylalanyl chloromethyl ketone (TPCK), 10 μg/mL Aprotinin, 60 mM Beta-Glycerol Phosphate, 1% Triton X100, 25 mM Tris pH 7.5, 2.5 mM Pyrophosphate, 150 mM NaCl, 2 mM p-tosyl-L-arginine methyl ester (TAME), 15 mM para-nitrophenyl phosphate (pNPP), 5 mM Benzamidine, 1 mM Na Vanadate, 10 mM NaF, 50 μg/mL phenylmethane sulofnyl fluoride (PMSF), 1 mM DTT, 15 mM EDTA pH 8.0, 5 mM EGTA pH 8.0, 1 μM Microcystin, 1 μM Okadaic Acid, and 1 Roche Complete protease inhibitor mini-tablet per 10 mL) using Lysing Matrix A tubes (MP Biomedicals, Solon, Ohio, cat# 6910-500) and a BIO101 Thermo Savant Fast Prep FP12. Lysates are aliquoted and either assayed immediately or stored at −80° C. for later testing. In Vivo Target Inhibition of p70 S6K is measured utilizing Meso Scale Discovery (Gaithersburg, Md.) ELISA technology to assess effects of the compound on phosphorylation of the serine 240/244 site of the downstream effector S6RP. Phosphorylation of p70 S6K(T389) and Akt(S473) is also assessed using this technology in a multiplex format. In summary, 20 μg of lysate is added to a carbon electrode 96-well plate pre-spotted with the appropriate capture antibodies. The protein of interest is probed using a ruthenium labeled detection antibody. Upon the passage of current over the electrode in the presence of read buffer containing the co-reactant TPA, electro-chemiluminescence results in the generation of light which is quantified and recorded using the MSD Sector 6000 instrument. For each study, percent inhibitions are calculated relative to the vehicle control group and ANOVA analysis is performed using the JMP software package for the determination of statistical significance. The following compounds were tested essentially as described above and have the following potencies based on plasma exposure.

Series [1] has as its system HUVEC / neo NHDF co-culture cord formation. In words: Angiogenesis Cord Formation Assay. The class given is cell-based. Conditions: Homo sapiens, 288 h. Here is the method: Human neonatal dermal fibroblast cells (neo NHDF) are seeded into Parkard 96 well plate on the first day, and incubated in the 37° C. and 5% CO2 incubator. Human umbilical vein endothelial cells (HUVEC) are then plated on the top of neo NHDF cells. Starting the third day, the co-culture is treated with eight-dose series of the test compound (starting with 20 μM, 1:3 serial dilution) in the presence of 20 ng/mL vascular endothelial growth factor (VEGF). The compound and VEGF are replenished every two to three days. The assay is conducted over a 12 day period. Cells are fixed by cold 70% ethanol for 30 minutes on the 12th day and processed for anti human CD31 immunofluorescence. Cultures are incubated with mouse anti human CD31 antibody and then stained by goat anti mouse alexa 488 secondary antibody. Cells are also stained by Hoechst to visualize the nucleus. After the staining, the cord formation is captured and quantified using Cellomics Arrayscan® VTI high content image analysis platform adopting the tube formation BioApplication. Two parameters, the cord area and angiogenesis index, are used to calculate the relative potency of the test compound in this angiogenesis assay. The compounds of Examples 5 and 10 were tested and analyzed essentially as described above.

Another series has as its system U87MG. Briefly: Cell assay (Alamar Blue, 72 hours) U87MG. The class given is cell-based. Conditions: Homo sapiens, U-87 MG. As for the experimental part:
(§1) Cells are maintained, then typsinized and suspended in Dulbecco's modified Eagle's medium (DMEM_containing 10% fetal bovine serum (FBS), 25 mM 4-(2-hydroxyethyl)-1-piperazineethanesulfonic acid (HEPES), 1.0 mM Sodium Pyruvate and 0.1 mM Non Essential Amino Acids (NEAA). 1×10^3 HCT116 and 2×10^3 Cells may be seeded in 50 μL in 96 well plates and incubated in 5% CO2 at 37° C. overnight. Compounds are prepared at desired starting concentrations and serial diluted in DMSO. 4 μL of diluted compounds are transferred in 1 mL 10% FBS DMEM to make up 2× concentrations as added 50 μL to the 50 μL in the presence of cells for dosing. The plates are incubated at 37° C. in 5% CO2 for 72 hours. At the end of incubation period, 10 μL Alamar Blue is added and after 2 hours reaction the measurement is determined in CytoFluor at 530 nm excitation, 580 nm emission and Gain 45. The following compounds were tested in the following cell lines essentially as described above.
In general terms: The colour change of resazurin is a common sign of viable cells or microbes.

Another series deals with A549. Briefly: Cell assay (Alamar Blue, 72 hours) A549. The class given is cell-based. The note with it: Homo sapiens. As for the experimental part:
as §1

The subject of the next series is A2780. In words: Cell assay (Alamar Blue, 72 hours) A2780. The class given is cell-based. The note with it: Homo sapiens. As for the experimental part:
as §1

In another series the test system is NCI-H460. Briefly: Cell assay (Alamar Blue, 72 hours) NCI-H460. It is filed as cell-based. The note with it: Homo sapiens. Here is the method: as §1
In the next series the test system is PANC-1. In words: Cell assay (Alamar Blue, 72 hours) PANC-1. The class given is cell-based. The note with it: Homo sapiens. As for the experimental part:
as §1

The next series concerns Rat 13762. In words: Cell assay (Alamar Blue, 72 hours) Rat 13762. It is filed as cell-based. Here is the method:
as §1

The subject of a further series is PC3. In words: Cell assay (Alamar Blue, 72 hours) PC3. The class given is cell-based. Conditions: Homo sapiens, PC-3. As for the experimental part:
as §1

The subject of a further series is K562. In words: Cell assay (Alamar Blue, 72 hours) K562. The class given is cell-based. The note with it: Homo sapiens. Here is the method: as §1
Another series can be described thus: Oral bioavailability. The class given is in vivo. Conditions: rat, plasma; Sprague Dawley rats, 1 mg/kg (IV) or 10 mg/kg (oral gavage). As for the experimental part:
The bioavailability of compounds of the present invention may be measured by methods known to the skilled artisan. For example a compound of Formula I is administered to Sprague Dawley rats at doses of 1 mg/kg (IV) or 10 mg/kg (oral gavage) in a conventional formulation. An oral formulation may include a suspension (0.25% PS80, 1% HEC, 0.05% Antifoam in water) using milled compound of Formula I. Plasma samples are obtained and concentrations of the compound of Formula I are measured. The compound of Example 57 was evaluated in a method substantially similar to that described above and found to have an oral bioavailability of >100%.

T1 sequence (P23443 whole entry T412E): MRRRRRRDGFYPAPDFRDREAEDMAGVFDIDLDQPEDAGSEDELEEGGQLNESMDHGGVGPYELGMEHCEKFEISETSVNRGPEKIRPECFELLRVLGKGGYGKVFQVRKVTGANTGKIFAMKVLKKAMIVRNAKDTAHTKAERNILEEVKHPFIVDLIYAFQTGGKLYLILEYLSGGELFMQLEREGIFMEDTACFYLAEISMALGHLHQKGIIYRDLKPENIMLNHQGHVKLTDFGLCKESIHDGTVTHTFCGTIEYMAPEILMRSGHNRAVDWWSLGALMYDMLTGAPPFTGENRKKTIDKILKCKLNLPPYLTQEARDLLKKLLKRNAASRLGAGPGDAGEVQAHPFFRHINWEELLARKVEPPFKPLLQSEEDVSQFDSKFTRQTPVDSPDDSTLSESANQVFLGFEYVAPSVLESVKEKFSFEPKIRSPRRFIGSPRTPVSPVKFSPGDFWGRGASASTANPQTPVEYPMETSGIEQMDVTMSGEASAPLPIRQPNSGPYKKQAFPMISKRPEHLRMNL
T2 sequence (P23443 whole entry): as the sequence (P23443 whole entry T412E) above, with E412T counted along it

What is called IC50 is the concentration that gives 50% inhibition. As for `Fc1ccc(-c2c[nH]c(C3CCN(c4ncnc5[nH]ccc45)CC3)n2)cc1C(F)(F)F` [Example 7, 4-{4-[4-(4-Fluoro-3-trifluoromethyl-phenyl)-1H-imidazol-2-yl]-piperidin-1-yl}-7H-pyrrolo[2,3-d]pyrimidine hydrochloride], the IC50 at P70 S6 kinase (T412E) worked out at 10.3 nM; at p70 S6K, 1920 nM.

With `Fc1ccc(-c2cnc(C3CCN(c4ncnc5[nH]cnc45)CC3)[nH]2)cc1C(F)(F)F` [Example 8, 6-{4-[5-(4-Fluoro-3-trifluoromethyl-phenyl)-1H-imidazol-2-yl]-piperidin-1-yl}-9H-purine hydrochloride], the half-maximal inhibitory concentration (IC50) was determined as 7.58 nM against P70 S6 kinase (T412E) and 47700 nM at p70 S6K.

Take `Cn1cc(-c2ccc(F)c(C(F)(F)F)c2)nc1C1CCN(c2ncnc3[nH]ncc23)CC1` [Example 10, 4-{4-[4-(4-Fluoro-3-trifluoromethyl-phenyl)-1-methyl-1H-imidazol-2-yl]-piperidin-1-yl}-1H-pyrazolo[3,4-d]pyrimidine hydrochloride]: the values for the IC50 (on P70 S6 kinase (T412E); in series [1]; on p70 S6K) were 3.79 nM, 4.78 µM and 1970 nM, respectively.

The term bioavailability denotes dose-corrected exposure relative to a reference, in per cent. As to `Cc1ccc(S(=O)(=O)O)cc1.Cn1cc(-c2ccc(F)c(C(F)(F)F)c2)nc1C1CCN(c2ncnc3[nH]ncc23)CC1` [Example 57, 4-{4-[4-(4-Fluoro-3-trifluoromethyl-phenyl)-1-methyl-1H-imidazol-2-yl]-piperidin-1-yl}-1H-pyrazolo[3,4-d]pyrimidine p-toluenesulfonate], the IC50 against P70 S6 kinase (T412E) was 12.7 nM; with U87MG, 27.5 µM; in the series with A549, 10.3 µM; in the series with A2780, 25.1 µM; in the series with NCI-H460, 24 µM; with PANC-1 it was 30.2 µM. For the same molecule, the IC50 in the series with Rat 13762 turned out to be 51.6 µM; with PC3, 31.9 µM; with K562, 16.5 µM. The bioavailability in the series “Oral bioavailability” is greater than 100%.
